# Measured values published in patent US8129361B2, “Amine compound and pharmaceutical use thereof” (Mitsubishi Tanabe Pharma Corporation, priority 2007, dated 2012).
# Experiments:
# Assay type in all cases: in vivo
# [1] = test system: peripheral blood lymphocyte number; test: Peripheral blood lymphocyte number decreasing action in rat; settings: male F344 rats, oral, 24 hr after administration, read-out: ED50 (dose necessary for reducing the lymphocyte count of the vehicle group (100%) by 50%)
# heart rate in rat = test: Action on heart rate in rat (telemetry, oral administration); settings: male Crl:CD(SD) rats, up to the dose of 10 mg/kg body weight, measured to 24 hr after administration
# Description: Action on Heart Rate in Rat
# Male Crl:CD(SD) rats were anesthetized by intraperitoneal administration of Nembutal (manufactured by Dainippon Sumitomo Pharma Co., Ltd.), and a pressure sensor connected to a telemetry transmitter (TL11M2-C50-PTX, manufactured by Data Sciences International) was inserted into the abdominal aorta and a transmitter was subcutaneously placed in the abdomen. The blood pressure and heart rate data were recorded by an analysis software (Dataquest A.R.T., manufactured by Data Sciences International) via a receiver (RPC-1, manufactured by Data Sciences International). After confirmation of recovery of circadian rhythm of the heart rate, the rats were subjected to the experiment. The compound of the present invention was suspended in 0.5% hydroxypropylmethylcellulose (manufactured by Shin-Etsu Chemical Co., Ltd.) and orally administered. The heart rate was measured from 72 hr before the administration to 24 hr after the administration.
# [2] = test system: peripheral blood lymphocyte number; test: Peripheral blood lymphocyte number decreasing action in mouse; settings: ip, male BALB/cAnNCrj mice, intraperitoneal, 24 hr after administration, read-out: ED50 (dose necessary for reducing the lymphocyte count of the vehicle group (100%) by 50%)
structure (smiles),measurement,setting,value
"C[C@](N)(CO)CCc1ccc(OCCCc2ccc(Cl)c(Cl)c2)c(C(F)(F)F)c1.Cl [Compound 204-1, (R)-2-amino-4-{4-[3-(3,4-dichlorophenyl)propoxy]-3-trifluoromethylphenyl}-2-methylbutanol hydrochloride]",ED50,[1],0.03 mg/kg
same,Effect on heart rate,heart rate in rat,did not reduce the heart rate
same,ED50,[2],0.005 mg/kg
